Like-named read-outs stand apart in the source and are kept apart here.
Columns and labels:
[1] = molecular target: T1, RET(V804M) (Homo sapiens, UniProt P07949, V804M); test: Kinase panel inhibition, radiolabeled [γ-33P] ATP (Reaction Biology Corp); format: biochemical; details: for remaining activity at 0.1 µM: compound at 0.1 uM; for remaining activity at 0.1 µM / remaining activity at 1 µM: ATP 10 µM, read-out: % Enzyme Activity (relative to DMSO controls) V804M; for remaining activity at 1 µM: compound at 1 uM
T1 construct: purchased Reaction Biology Corp

[2] = molecular target: T2, RET (G810S/M918T) (Homo sapiens, UniProt P07949, G810S/M918T); test: as above; format: biochemical; details: ATP 1 µM; for remaining activity at 10 µM: compound at 10 uM; for remaining activity at 30 µM: compound at 30uM
T2 construct: purchased Reaction Biology Corp

[3] = molecular target: T3, RET-CCDC6 (PTC1) (Homo sapiens, UniProt P07949); test: as above; format: biochemical; details: compound at 10 uM, ATP 1 µM
T3 construct: purchased Reaction Biology Corp

[4] = system: A-549; test: Cell proliferation inhibition, Cell Counting Kit-8, non-small cell lung cancer cell line; format: cell-based; details: A-549 cell line; 72 hours incubation; test concentration not given
[5] = molecular target: T4, RET(G810R) (Homo sapiens, UniProt P07949, G810R); test: Kinase panel inhibition, radiolabeled [γ-33P] ATP (Reaction Biology Corp); format: biochemical; details: for remaining activity at 0.1 µM: compound at 0.1 uM; for remaining activity at 0.1 µM / remaining activity at 1 µM: ATP 10 µM, read-out: % Enzyme Activity (relative to DMSO controls) G810R; for remaining activity at 1 µM: compound at 1 uM
T4 construct: purchased Reaction Biology Corp

[6] = molecular target: T5, RET(V804M)-KIF5B (Homo sapiens, UniProt P07949, V804M); test: as above; format: biochemical; details: for remaining activity at 0.1 µM: compound at 0.1 uM, ATP 10 µM, read-out: % Enzyme Activity (relative to DMSO controls) RET (V804M )-KIF5B
T5 sequence (P07949 713-1114 V804M): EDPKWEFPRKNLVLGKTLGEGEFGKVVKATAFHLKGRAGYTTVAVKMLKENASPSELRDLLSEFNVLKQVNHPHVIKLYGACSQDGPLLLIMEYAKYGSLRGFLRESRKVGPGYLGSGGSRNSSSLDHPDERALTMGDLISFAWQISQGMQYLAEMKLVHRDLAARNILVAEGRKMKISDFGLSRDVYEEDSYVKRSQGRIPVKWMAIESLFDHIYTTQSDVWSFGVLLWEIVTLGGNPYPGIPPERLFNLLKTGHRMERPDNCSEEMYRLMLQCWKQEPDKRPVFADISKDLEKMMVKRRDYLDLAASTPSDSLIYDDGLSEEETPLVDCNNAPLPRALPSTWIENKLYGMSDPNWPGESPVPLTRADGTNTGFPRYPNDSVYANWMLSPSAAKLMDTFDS
T5 sequence (P33176 2-575 partner): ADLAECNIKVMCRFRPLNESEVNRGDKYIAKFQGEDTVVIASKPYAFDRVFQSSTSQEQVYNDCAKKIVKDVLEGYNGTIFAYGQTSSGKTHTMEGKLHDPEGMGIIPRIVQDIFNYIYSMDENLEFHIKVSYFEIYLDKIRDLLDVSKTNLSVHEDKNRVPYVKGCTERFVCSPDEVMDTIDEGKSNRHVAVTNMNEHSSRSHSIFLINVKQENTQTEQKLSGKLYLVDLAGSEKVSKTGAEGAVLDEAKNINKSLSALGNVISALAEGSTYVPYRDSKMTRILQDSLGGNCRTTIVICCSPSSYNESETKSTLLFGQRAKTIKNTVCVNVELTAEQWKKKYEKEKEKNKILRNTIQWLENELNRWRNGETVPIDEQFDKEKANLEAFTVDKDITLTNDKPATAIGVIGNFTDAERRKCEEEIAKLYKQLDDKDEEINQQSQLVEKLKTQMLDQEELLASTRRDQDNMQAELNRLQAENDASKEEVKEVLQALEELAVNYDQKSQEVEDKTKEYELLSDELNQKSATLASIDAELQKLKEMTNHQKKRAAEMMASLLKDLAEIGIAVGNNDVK

[7] = molecular target: T6, RET (Homo sapiens, UniProt P07949); test: as above; format: biochemical; details: compound at 1 uM; ATP 10 µM; read-out: % Enzyme Activity (relative to DMSO controls) RET
T6 construct: purchased Reaction Biology Corp

[8] = system: BaF3 KIF5B-RET (G810R); test: Cell proliferation inhibition, Cell Counting Kit-8, Ba/F3 cell line; format: cell-based, rodent; details: Mus musculus, 72 hours incubation, read-out: Cell Viability of BaF3 Cell lines (IC50 in uM) KIF5B-RET (G810R)
[9] = Data 1, read-out: % Enzyme Activity (relative to DMSO controls) RET (G810S/M918T) Data 1
[10] = Data 2, read-out: % Enzyme Activity (relative to DMSO controls) RET (G810S/M918T) Data 2
[11] = Data 1, read-out: % Enzyme Activity (relative to DMSO controls) RET-CCDC6 (PTC1) Data 1
[12] = Data 2, read-out: % Enzyme Activity (relative to DMSO controls) RET-CCDC6 (PTC1) Data 2

T4 sequence (P07949 29-1114 G810R): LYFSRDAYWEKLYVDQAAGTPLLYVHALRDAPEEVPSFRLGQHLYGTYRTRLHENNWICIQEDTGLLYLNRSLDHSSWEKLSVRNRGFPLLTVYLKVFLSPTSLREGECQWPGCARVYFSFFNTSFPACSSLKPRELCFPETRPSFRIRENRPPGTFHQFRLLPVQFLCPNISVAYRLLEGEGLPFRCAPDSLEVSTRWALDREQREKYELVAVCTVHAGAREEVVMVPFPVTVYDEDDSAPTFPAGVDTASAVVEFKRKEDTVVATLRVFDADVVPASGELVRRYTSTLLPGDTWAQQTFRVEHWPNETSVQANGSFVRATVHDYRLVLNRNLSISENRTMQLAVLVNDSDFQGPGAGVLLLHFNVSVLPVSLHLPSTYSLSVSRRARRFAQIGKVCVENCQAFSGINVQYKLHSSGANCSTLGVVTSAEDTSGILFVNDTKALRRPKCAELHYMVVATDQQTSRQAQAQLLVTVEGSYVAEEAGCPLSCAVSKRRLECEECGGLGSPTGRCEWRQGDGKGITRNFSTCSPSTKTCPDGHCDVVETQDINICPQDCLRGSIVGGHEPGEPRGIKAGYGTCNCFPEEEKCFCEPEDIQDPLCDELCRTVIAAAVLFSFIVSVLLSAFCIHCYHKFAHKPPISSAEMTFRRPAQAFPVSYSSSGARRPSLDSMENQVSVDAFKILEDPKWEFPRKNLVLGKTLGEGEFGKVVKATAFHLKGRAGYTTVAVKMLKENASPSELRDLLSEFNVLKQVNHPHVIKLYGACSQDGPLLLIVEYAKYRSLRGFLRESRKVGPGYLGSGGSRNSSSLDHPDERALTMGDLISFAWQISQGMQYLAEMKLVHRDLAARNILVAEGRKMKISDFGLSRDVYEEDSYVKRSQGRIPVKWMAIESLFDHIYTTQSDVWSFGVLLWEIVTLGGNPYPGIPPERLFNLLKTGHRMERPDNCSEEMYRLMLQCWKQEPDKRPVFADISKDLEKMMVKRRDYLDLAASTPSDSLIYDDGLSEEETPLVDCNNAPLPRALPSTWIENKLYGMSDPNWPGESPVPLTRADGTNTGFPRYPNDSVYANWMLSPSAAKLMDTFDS
T1 sequence (P07949 29-1114 V804M): as the sequence (P07949 29-1114 G810R) above, with V776M, R782G counted along it
T2 sequence (P07949 29-1114 G810S/M918T): as the sequence (P07949 29-1114 G810R) above, with R782S, M890T counted along it
T6 sequence (P07949 29-1114): as the sequence (P07949 29-1114 G810R) above, with R782G counted along it
T3 sequence (P07949 whole entry, looked up): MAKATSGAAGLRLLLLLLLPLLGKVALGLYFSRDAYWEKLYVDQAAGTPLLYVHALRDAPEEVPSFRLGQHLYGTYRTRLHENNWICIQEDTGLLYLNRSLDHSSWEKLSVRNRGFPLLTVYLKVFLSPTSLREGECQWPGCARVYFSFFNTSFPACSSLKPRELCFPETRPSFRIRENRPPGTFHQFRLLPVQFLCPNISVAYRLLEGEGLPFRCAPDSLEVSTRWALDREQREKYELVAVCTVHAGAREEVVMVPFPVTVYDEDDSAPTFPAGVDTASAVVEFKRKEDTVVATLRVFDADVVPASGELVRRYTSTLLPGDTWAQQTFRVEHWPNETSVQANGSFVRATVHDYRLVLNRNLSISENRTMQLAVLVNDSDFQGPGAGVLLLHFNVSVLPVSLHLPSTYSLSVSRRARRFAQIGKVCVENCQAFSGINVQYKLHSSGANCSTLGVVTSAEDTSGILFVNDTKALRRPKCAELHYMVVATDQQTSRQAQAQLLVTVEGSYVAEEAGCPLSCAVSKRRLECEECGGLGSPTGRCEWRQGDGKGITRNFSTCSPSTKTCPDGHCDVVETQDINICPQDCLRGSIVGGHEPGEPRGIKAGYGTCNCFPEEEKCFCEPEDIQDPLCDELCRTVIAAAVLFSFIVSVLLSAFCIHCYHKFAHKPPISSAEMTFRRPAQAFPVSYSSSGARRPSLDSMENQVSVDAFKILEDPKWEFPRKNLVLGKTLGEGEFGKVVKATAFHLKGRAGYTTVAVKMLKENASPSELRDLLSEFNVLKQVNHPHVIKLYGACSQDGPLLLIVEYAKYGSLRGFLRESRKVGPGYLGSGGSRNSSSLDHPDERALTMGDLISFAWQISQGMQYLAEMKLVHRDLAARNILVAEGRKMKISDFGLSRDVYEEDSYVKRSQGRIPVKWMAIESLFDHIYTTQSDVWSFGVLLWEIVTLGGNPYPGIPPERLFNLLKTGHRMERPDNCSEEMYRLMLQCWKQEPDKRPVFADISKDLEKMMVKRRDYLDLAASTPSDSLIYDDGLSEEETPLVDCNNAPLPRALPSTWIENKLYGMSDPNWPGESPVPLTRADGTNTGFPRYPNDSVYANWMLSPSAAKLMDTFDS

Structure (SMILES) | remaining activity at 10 µM [2, 9] [%] | remaining activity at 10 µM [2, 10] [%] | remaining activity at 10 µM [3, 11] [%] | remaining activity at 10 µM [3, 12] [%] | remaining activity at 1 µM [1] [%] | remaining activity at 30 µM [2, 9] [%] | remaining activity at 30 µM [2, 10] [%] | remaining activity at 1 µM [7] [%] | remaining activity at 1 µM [5] [%] | IC50 [8] [µM] | Cell Proliferation (% of control) [4] [%] | also measured
O=C(Nc1cc(-c2ccc(N3CC(Oc4cccc(F)c4)C3)nc2)c2nccnc2c1)c1ccco1 [Example 8, N-(8-(6-(3-(3-fluorophenoxy)azetidin-1-yl)pyridin-3-yl)quinoxalin-6-yl)furan-2-carboxamide] | 13.6 | 12.9 | 2.53 | 1.8 |  |  |  |  |  |  | 78.35 | remaining activity at 0.1 µM [1]: 46%; remaining activity at 0.1 µM [5]: 96.7%; remaining activity at 0.1 µM [6]: 65.1%
Nc1cc(-c2ccc(N3CC[C@H](NC(=O)c4ccccc4F)C3)nc2)c2nccnc2c1 [Example 10, (S)-N-(1-(5-(7-aminoquinoxalin-5-yl)pyridin-2-yl)pyrrolidin-3-yl)-2-fluorobenzamide] | -0.09 | -0.6 | 1.55 | 0.99 |  |  |  |  |  |  | 32.59 | remaining activity at 0.1 µM [1]: 2.27%; IC50 ([1]; read-out: Enzymatic inhibitory activity (IC50) nM V804M): 0.5 nM; remaining activity at 0.1 µM [5]: 59.9%; IC50 ([5]; read-out: Enzymatic inhibitory activity (IC50) nM G810R): 44.7 nM; IC50 [6]: 2.26 nM; remaining activity at 0.1 µM [6]: 5.5%
O=[N+]([O-])c1cc(-c2ccc(N3CC(Oc4cccc(F)c4)C3)nc2)c2nccnc2c1 [Example 27, 5-(6-(3-(3-fluorophenoxy)azetidin-1-yl)pyridin-3-yl)-7-nitroquinoxaline] |  |  |  |  | 62.8 | 59.9 | 58.1 | 67.2 | 101 | > 10 | 94.57 | 
Nc1cc(-c2cnc(N3CC(Oc4cccc(F)c4)C3)nc2)c2nccnc2c1 [Example 29, 8-(2-(3-(3-fluorophenoxy)azetidin-1-yl)pyrimidin-5-yl)quinoxalin-6-amine] | 0.28 | 0.11 | 1.22 | 1.07 |  |  |  |  |  |  | 12.87 | remaining activity at 0.1 µM [5]: 76.3%
Nc1cc(-c2cnc(N3CC[C@H](NC(=O)c4ccccc4F)C3)nc2)c2nccnc2c1 [Example 30, (S)-N-(1-(5-(7-aminoquinoxalin-5-yl)pyrimidin-2-yl)pyrrolidin-3-yl)-2-fluorobenzamide] | 0.97 | 0.98 | 1.19 | 1.2 |  |  |  |  |  |  | 42.94 | 
O=C(Nc1cc(Br)c2nccnc2c1)c1ccco1 [Intermediate Compound 11, N-(8-bromoquinoxalin-6-yl)furan-2-carboxamide] |  |  |  |  | 87.1 | 74.7 | 73 | 93.7 | 97.6 | > 10 |  | 
O=C(Nc1cc(-c2ccc(F)nc2)c2nccnc2c1)c1ccco1 [Intermediate Compound 13, N-(8-(6-fluoropyridin-3-yl)quinoxalin-6-yl)furan-2-carboxamide] |  |  |  |  | 104 | 92.6 | 89.7 | 95.7 | 102 | > 10 |  | 
O=[N+]([O-])c1cc(-c2ccc(F)nc2)c2nccnc2c1 [Intermediate Compound 15, 5-(6-fluoropyridin-3-yl)-7-nitroquinoxaline] |  |  |  |  | 94.9 | 97.4 | 99.4 | 93.5 | 99.5 |  |  | 
CCNc1cc(Br)c2nccnc2c1 [Intermediate Compound 18, 8-Bromo-N-ethylquinoxalin-6-amine] |  |  |  |  | 68.3 | 10.3 | 9.57 | 71.1 | 104 | 0.73 |  | 
COc1ccc(CN2C3CC2CN(c2ccc(-c4cc(OCC(C)(C)O)cn5ncc(C#N)c45)cn2)C3)cn1 [Selpercatinib, selpercatinib, reference compound] |  |  |  |  |  |  |  |  |  | 1.41 |  | 

Continued, in another order:

remaining activity at 10 µM [2, 9] [%] | remaining activity at 10 µM [2, 10] [%] | remaining activity at 10 µM [3, 11] [%] | remaining activity at 10 µM [3, 12] [%] | remaining activity at 1 µM [1] [%] | remaining activity at 30 µM [2, 9] [%] | remaining activity at 30 µM [2, 10] [%] | remaining activity at 1 µM [7] [%] | remaining activity at 1 µM [5] [%] | IC50 [8] [µM] | Structure (SMILES) | Cell Proliferation (% of control) [4] [%] | also measured
15.7 | 15.1 | 2.9 | 3.03 |  |  |  |  |  |  | CCS(=O)(=O)N1CCN(c2ccc(-c3cc(N)cc4nccnc34)cn2)CC1 [Example 22, 8-(6-(4-(ethylsulfonyl)piperazin-1-yl)pyridin-3-yl)quinoxalin-6-amine] | 68.42 | 
9.23 | 9.45 | 1.92 | 2.29 |  |  |  |  |  |  | Nc1cc(-c2ccc(N3CCN(c4ccccn4)CC3)nc2)c2nccnc2c1 [Example 23, 8-(6-(4-(pyridin-2-yl)piperazin-1-yl)pyridin-3-yl)quinoxalin-6-amine] | 78.36 | 
2.24 | 2.38 | 1.51 | 1.27 |  |  |  |  |  |  | Nc1cc(-c2ccc(N3CCN(Cc4ccc(Br)cc4)CC3)nc2)c2nccnc2c1 [Example 24, 8-(6-(4-(4-bromobenzyl)piperazin-1-yl)pyridin-3-yl)quinoxalin-6-amine] | 15.35 | 
46.8 | 45.2 | 18.3 | 20.4 |  |  |  |  |  |  | Nc1cc(-c2ccc(N3CCC(N4CCOCC4)CC3)nc2)c2nccnc2c1 [Example 25, 8-(6-(4-morpholinopiperidin-1-yl)pyridin-3-yl)quinoxalin-6-amine] | 75.52 | 
1.23 | 1.3 | 0.94 | 1.32 |  |  |  |  |  |  | CCNc1cc(-c2ccc(N3CCN(Cc4ccc(Br)cc4)CC3)nc2)c2nccnc2c1 [Example 26, 8-(6-(4-(4-bromobenzyl)piperazin-1-yl)pyridin-3-yl)-N-ethylquinoxalin-6-amine] | 79.51 | 
 |  |  |  | 16.5 | 4.19 | 4.35 | 28.3 | 105 | > 10 | CCN(CC)c1cc(-c2ccc(N3CC(Oc4cccc(F)c4)C3)nc2)c2nccnc2c1 [Example 28, N,N-diethyl-8-(6-(3-(3-fluorophenoxy)azetidin-1-yl)pyridin-3-yl)quinoxalin-6-amine] | 94.81 | 
 |  |  |  | 59.3 | 18.2 | 17.2 | 57 | 97.9 | 4.44 | CCNc1cc(-c2ccc(F)nc2)c2nccnc2c1 [Intermediate Compound 6, N-ethyl-8-(6-fluoropyridin-3-yl)quinoxalin-6-amine] |  | 

— EP4796538A1, “NOVEL QUINOXALINE COMPOUNDS, MANUFACTURING METHOD THEREOF, AND USES THEREOF” (Gachon University of Industry-Academic Cooperation …, priority 2023, dated 2025)
